Values joined by “and” are separate entries in the source; they are usually repeats but may differ in a detail not shown here. Equal values may be shown once.
Assay: Transdermal shaved rat model: radiolabelled compound in gel patch, amount recovered in urine and feces
Conditions: for Mg transported in Feces 24 Hrs / Mg transported in Feces 48 Hrs / Mg transported in Feces 72 Hrs / Mg transported in Urine 24 Hrs / Mg transported in Urine 48 Hrs / Mg transported in Urine 72 Hrs / Mg transported Total (feces + urine) / Mg transported Total, Mean: diethyl ester section, transdermal patch; for Mg transported in Feces 24 Hrs / Mg transported in Feces 48 Hrs / Mg transported in Feces 72 Hrs / Mg transported in Urine 24 Hrs / Mg transported in Urine 48 Hrs / Mg transported in Urine 72 Hrs / Mg transported Total (feces + urine): individual rats; for Mg transported Total (feces + urine): 72 Hrs; for Mg transported Total, Mean: mean of 4 rats

CCOC(=O)C[C@H](NC(=O)CCCCc1ccc(C(=N)N)cc1)C(=O)N[C@@H](Cc1ccccc1)C(=O)OCC [N-[N-[5-[4-(aminoiminomethyl)phenyl]-1-oxopentyl]-L-α-aspartyl]-L-phenylalanine, diethyl ester]
average amount delivered (2.5 cm^2 patch, rat): 4.6 ± 1.9 mg | Mg transported in Feces 24 Hrs (Ethanol): 0.05 Mg and 0.01 Mg (2×) and 0.04 Mg | Mg transported in Feces 48 Hrs (Ethanol): 3.16 Mg and 2.44 Mg and 4.09 Mg and 1.20 Mg | Mg transported in Feces 72 Hrs (Ethanol): 1.51 Mg and 2.33 Mg and 1.67 Mg and 0.43 Mg | Mg transported in Urine 24 Hrs (Ethanol): 0.02 Mg and 0.01 Mg and 0.00 Mg (2×) | Mg transported in Urine 48 Hrs (Ethanol): 0.27 Mg and 0.12 Mg and 0.16 Mg and 0.13 Mg | Mg transported in Urine 72 Hrs (Ethanol): 0.42 Mg and 0.19 Mg and 0.11 Mg (2×) | Mg transported Total (feces + urine) (Ethanol): 5.43 Mg and 5.10 Mg and 6.07 Mg and 1.88 Mg | Mg transported Total, Mean (Ethanol): 4.62 Mg | Mg transported in Feces 24 Hrs (Saline): 0.48 Mg and 0.67 Mg and 0.02 Mg (2×) | Mg transported in Feces 48 Hrs (Saline): 4.59 Mg and 3.88 Mg and 0.61 Mg and 1.21 Mg | Mg transported in Feces 72 Hrs (Saline): 0.84 Mg and 1.17 Mg and 0.49 Mg and 0.67 Mg | Mg transported in Urine 24 Hrs (Saline): 0.19 Mg and 0.17 Mg and 0.00 Mg (2×) | Mg transported in Urine 48 Hrs (Saline): 0.20 Mg and 0.16 Mg and 0.15 Mg and 0.13 Mg | Mg transported in Urine 72 Hrs (Saline): 0.09 Mg and 0.11 Mg and 0.05 Mg and 0.10 Mg | Mg transported Total (feces + urine) (Saline): 6.39 Mg and 6.16 Mg and 1.32 Mg and 2.09 Mg | Mg transported Total, Mean (Saline): 3.99 Mg

From patent US6387880B1, “Transdermal N-[N-[5-[4-(aminoiminomethly)phenyl]-1-oxopentyl]-L-α-aspartyl]-L-phenylalainine or its esters and their pharmaceutically acceptable salts” (G.D. Searle & Co., priority 1996, dated 2002)
